Assay: xn = mol fraction of the nth substance listed
Settings: for surface tension liquid-gas: Ring tensiometer; for binary diffusion coefficient: 101 kPa, Taylor dispersion method; for binary diffusion coefficient / viscosity: Liquid; for viscosity: 101.33 kPa

CCN(CC)CCO [(diethylamino)ethanol] + O
Settings | binary diffusion coefficient [m2/s] | surface tension liquid-gas [mN/m] | viscosity [mPa·s]
283.15 K, x1 = 0.00104 | – | 62.91 | –
283.15 K, x1 = 0.00111 | – | 62.83 | –
283.15 K, x1 = 0.0013 | – | 62.32 | –
283.15 K, x1 = 0.00336 | – | 55.32 | –
283.15 K, x1 = 0.00503 | – | 54.03 | –
283.15 K, x1 = 0.00679 | – | 50.98 | –
283.15 K, x1 = 0.02372 | – | 43.65 | –
283.15 K, x1 = 0.03998 | – | 39.05 | –
283.15 K, x1 = 0.06011 | – | 37.17 | –
283.15 K, x1 = 0.07276 | – | 36.26 | –
283.15 K, x1 = 0.1253 | – | 34.78 | –
283.15 K, x1 = 0.1749 | – | 33.38 | –
283.15 K, x1 = 0.2503 | – | 32.74 | –
283.15 K, x1 = 0.3515 | – | 31.85 | –
283.15 K, x1 = 0.4018 | – | 31.32 | –
283.15 K, x1 = 0.5038 | – | 31.02 | –
283.15 K, x1 = 0.608 | – | 30.63 | –
283.15 K, x1 = 0.712 | – | 30.36 | –
283.15 K, x1 = 0.7503 | – | 30.08 | –
283.15 K, x1 = 0.8542 | – | 29.69 | –
283.15 K, x1 = 1 | – | 28.79 | –
288.15 K, x1 = 0.00104 | – | 62.06 | –
288.15 K, x1 = 0.00111 | – | 61.98 | –
288.15 K, x1 = 0.0013 | – | 61.47 | –
288.15 K, x1 = 0.00336 | – | 54.27 | –
288.15 K, x1 = 0.00503 | – | 53.11 | –
288.15 K, x1 = 0.00679 | – | 49.93 | –
288.15 K, x1 = 0.02372 | – | 42.61 | –
288.15 K, x1 = 0.03998 | – | 38.43 | –
288.15 K, x1 = 0.06011 | – | 36.56 | –
288.15 K, x1 = 0.07276 | – | 35.84 | –
288.15 K, x1 = 0.1253 | – | 34.38 | –
288.15 K, x1 = 0.1749 | – | 32.58 | –
288.15 K, x1 = 0.2503 | – | 32.22 | –
288.15 K, x1 = 0.3515 | – | 31.24 | –
288.15 K, x1 = 0.4018 | – | 30.72 | –
288.15 K, x1 = 0.5038 | – | 30.62 | –
288.15 K, x1 = 0.608 | – | 30.23 | –
288.15 K, x1 = 0.712 | – | 29.96 | –
288.15 K, x1 = 0.7503 | – | 29.69 | –
288.15 K, x1 = 0.8542 | – | 29.3 | –
288.15 K, x1 = 1 | – | 28.39 | –
293.15 K, x1 = 0.00104 | – | 61.43 | –
293.15 K, x1 = 0.00111 | – | 61.34 | –
293.15 K, x1 = 0.0013 | – | 60.62 | –
293.15 K, x1 = 0.00336 | – | 53.43 | –
293.15 K, x1 = 0.00503 | – | 52.35 | –
293.15 K, x1 = 0.00679 | – | 48.58 | –
293.15 K, x1 = 0.02372 | – | 41.89 | –
293.15 K, x1 = 0.03998 | – | 37.6 | –
293.15 K, x1 = 0.06011 | – | 36 | –
293.15 K, x1 = 0.07276 | – | 35.06 | –
293.15 K, x1 = 0.1253 | – | 33.88 | –
293.15 K, x1 = 0.1749 | – | 32.18 | –
293.15 K, x1 = 0.2503 | – | 31.82 | –
293.15 K, x1 = 0.3515 | – | 30.73 | –
293.15 K, x1 = 0.4018 | – | 30.23 | –
293.15 K, x1 = 0.5038 | – | 30.22 | –
293.15 K, x1 = 0.608 | – | 29.73 | –
293.15 K, x1 = 0.712 | – | 29.66 | –
293.15 K, x1 = 0.7503 | – | 29.29 | –
293.15 K, x1 = 0.8542 | – | 28.8 | –
293.15 K, x1 = 1 | – | 27.99 | –
298.15 K, x1 = 0.00104 | – | 60.8 | –
298.15 K, x1 = 0.00111 | – | 60.7 | –
298.15 K, x1 = 0.0013 | – | 59.88 | –
298.15 K, x1 = 0.00336 | – | 52.59 | –
298.15 K, x1 = 0.00427 | 6.17e-10 | – | –
298.15 K, x1 = 0.00503 | – | 51.41 | –
298.15 K, x1 = 0.00679 | – | 47.43 | –
298.15 K, x1 = 0.01005 | – | – | 1.201
298.15 K, x1 = 0.01425 | 4.95e-10 | – | –
298.15 K, x1 = 0.02016 | – | – | 1.536
298.15 K, x1 = 0.02372 | – | 40.85 | –
298.15 K, x1 = 0.03 | – | – | 1.949
298.15 K, x1 = 0.03523 | 2.95e-10 | – | –
298.15 K, x1 = 0.03998 | – | 36.88 | –
298.15 K, x1 = 0.04005 | – | – | 2.421
298.15 K, x1 = 0.05087 | 2.23e-10 | – | –
298.15 K, x1 = 0.05118 | 2.22e-10 | – | –
298.15 K, x1 = 0.05946 | – | – | 3.473
298.15 K, x1 = 0.06011 | – | 35.23 | –
298.15 K, x1 = 0.06152 | – | – | 3.51
298.15 K, x1 = 0.07013 | 1.58e-10 | – | –
298.15 K, x1 = 0.07026 | – | – | 4.128
298.15 K, x1 = 0.07276 | – | 34.59 | –
298.15 K, x1 = 0.08762 | – | – | 5.181
298.15 K, x1 = 0.09008 | – | – | 5.347
298.15 K, x1 = 0.09711 | 1.32e-10 | – | –
298.15 K, x1 = 0.1004 | 1.26e-10 | – | –
298.15 K, x1 = 0.11 | – | – | 6.615
298.15 K, x1 = 0.12 | – | – | 7.243
298.15 K, x1 = 0.1253 | – | 33.18 | –
298.15 K, x1 = 0.1301 | – | – | 7.863
298.15 K, x1 = 0.1401 | – | – | 8.511
298.15 K, x1 = 0.1467 | 1.07e-10 | – | –
298.15 K, x1 = 0.1749 | – | 31.58 | –
298.15 K, x1 = 0.2503 | – | 31.21 | –
298.15 K, x1 = 0.3515 | – | 30.22 | –
298.15 K, x1 = 0.4018 | – | 29.73 | –
298.15 K, x1 = 0.5038 | – | 29.72 | –
298.15 K, x1 = 0.608 | – | 29.23 | –
298.15 K, x1 = 0.712 | – | 29.15 | –
298.15 K, x1 = 0.7503 | – | 28.8 | –
298.15 K, x1 = 0.8542 | – | 28.41 | –
298.15 K, x1 = 1 | – | 27.6 | –

Source: the NIST ThermoML archive (doi:10.1021/je700350b)
